The source of these data is BindingDB's records for doi:10.1007/s10822-022-00478-x (Roche Innovation Center Basel, F. Hoffmann-La Roche Ltd., 2022).

pIC50: −log10 of the molar value.

The assay has as its target cAMP and cAMP-inhibited cGMP 3',5'-cyclic phosphodiesterase 10A (Homo sapiens, UniProt Q9Y233). Put plainly: PDE10A assay. The procedure, abridged: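 Human PDE10A (2 ng/well) preincubated 15 min RT with compound in HEPES pH 7.5, 10 mM MgCl2, BSA, then reacted 15 min with 50 nM [3H]cGMP/cGMP substrate. Stopped with Y-Si SPA beads; bound radioactivity counted, IC50 from four-parameter logistic, pIC50 = −log10(IC50).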
Take `Cc1ncc(C)n2nc(CCc3nc(N4CCC[C@@H]4C)nn3C)nc12` [Roche-Dataset for PDE10A, Compound 269]: the pIC50 (usually the negative decadic logarithm of the IC50, by convention in mol/L) was 8.34.

In turn, `O=C(Nc1ccn2nc(-c3ccccc3)nc2c1)c1cc(Cl)nc(NC2CC2)c1` [Roche-Dataset for PDE10A, Compound 101] had a negative logarithm of the IC50 (pIC50) of 8.21. As for `O=C(Nc1ccn2nc(-c3ccccc3)nc2c1)c1cc(Cl)nc(Cl)c1` [Roche-Dataset for PDE10A, Compound 327], the figure is 7.42; as for `COc1cccc(-c2nc3cc(NC(=O)c4c(C(=O)N5CCC5)cnn4C)ccn3n2)n1` [Roche-Dataset for PDE10A, Compound 160], 8.96. Regarding `Cn1cc(-c2ccccc2)nc1CCc1nc2ccc(Cl)cc2c(=O)[nH]1` [Roche-Dataset for PDE10A, Compound 93], the negative-log IC50 (pIC50) is 8.04. As for `Cn1ncc(C(=O)NCCOCCO)c1C(=O)Nc1ccn2nc(-c3ccccc3)nc2c1` [Roche-Dataset for PDE10A, Compound 84], the figure is 7.85; as for `Cc1c(Br)cn2nc(/C=C/c3nc(N4CCCC4)n(C)n3)nc2c1C` [Roche-Dataset for PDE10A, Compound 364], 7.14. For `O=C(Nc1cc(-c2ccc3ccccc3n2)nn1CCO)c1nc(C2CC2)ccc1Nc1cncnc1` [US8470820, 25] the value was 10.05. For `O=C(c1nc(C2CC2)cnc1Nc1cncnc1)N1CCN(C2CCCCC2)CC1` [Roche-Dataset for PDE10A, Compound 1040] the value was 5.00; for `Cc1nc2ccc(NC(=O)c3c(C(=O)N4CCC4)cnn3C)cn2n1` [Roche-Dataset for PDE10A, Compound 1007], 5.43.

Molecule `Cc1c(Cl)cc(C(F)F)c2nc(CCc3nc(N4CCCC4)nn3C)nn12` [Roche-Dataset for PDE10A, Compound 187] showed a negative logarithm of the IC50 (pIC50) of 8.78. `c1cc(COc2nc(N3CCOCC3)c3ccccc3n2)nc(N2CCCC2)c1` [4-(2-((6-(pyrrolidin-1-yl)pyridin-2-yl)methoxy)quinazolin-4-yl)morpholine] had a pIC50 of 7.24.

For `Cn1nc(-c2ccc(C(F)(F)F)cn2)cc1NC(=O)c1c(C(=O)N2CCC2)cnn1C` [Roche-Dataset for PDE10A, Compound 634], the negative-log IC50 (pIC50) is 7.59. As for `C/C(=C\c1nc2c(C)ncc(C)n2n1)c1nc(N2CCCC2)nn1C` [Roche-Dataset for PDE10A, Compound 805], the figure is 7.21. The molecule `CC(=O)N1CCc2ccc(NC(=O)c3nc(C4CC4)cnc3Nc3cncnc3)cc21` [Roche-Dataset for PDE10A, Compound 827] showed a pIC50 of 8.23.

In turn, `Cn1cc(-c2ccccc2)nc1COc1cnc2cc(Cl)ccc2n1` [Roche-Dataset for PDE10A, Compound 598] had a negative logarithm of the IC50 (pIC50) of 8.01. The molecule `Cn1ncc(C(=O)N2CC(F)C2)c1C(=O)Nc1ccn2nc(N3CCOCC3)nc2c1` [Roche-Dataset for PDE10A, Compound 372] showed a pIC50 of 8.30. For `CN(C(=O)c1cnn(C)c1C(=O)Nc1ccn2nc(N3CCOCC3)nc2c1)C1CC1` [Roche-Dataset for PDE10A, Compound 207], the negative-log IC50 (pIC50) was 8.96. `O=C(Nc1cn(-c2ccccn2)cn1)c1nc(C2CC2)ccc1Br` [Roche-Dataset for PDE10A, Compound 1003]: the pIC50 was 6.36.

Molecule `Cn1cc(-c2ccccc2)nc1COc1ncc(Cl)nc1C(=O)NCc1ccccc1` [Roche-Dataset for PDE10A, Compound 297] gave a pIC50 of 6.87. For `O=C(Nc1cc(F)c(F)cc1C(=O)N1CCC1)c1nc(C2CC2)cnc1Nc1cncnc1` [US8703768, 291] the value was 7.55; for `O=C1c2ccccc2C(=O)N1CCc1csc(-c2ccccc2)n1` [Roche-Dataset for PDE10A, Compound 177], 5.60. Turning to `Cc1nc(C(F)(F)F)n2nc(CCc3nc(N4CCCC4)nn3C)nc2c1C` [Roche-Dataset for PDE10A, Compound 432], the pIC50 was 8.12. Turning to `CC(C)Cn1ccc(NC(=O)c2nc(C3CC3)ccc2Nc2cncnc2)n1` [Roche-Dataset for PDE10A, Compound 624], the pIC50 was 8.23. As for `O=C(NC1CC1)c1ccsc1NC(=O)c1nc(C2CC2)ccc1Nc1cncnc1` [US8703768, 89], the figure is 9.32. As for `Cc1ncc(C)n2nc(/C=C/c3nc(C)n(-c4ccccc4)n3)nc12` [Roche-Dataset for PDE10A, Compound 720], the figure is 6.75; as for `CSc1ncc(Br)c(C(=O)Nc2cc(-c3ccccn3)nn2C)n1` [Roche-Dataset for PDE10A, Compound 723], 5.12; as for `Cn1nc(N2CCCC2)nc1/C=C/c1nc(N2CCCC2)n(C)n1` [Roche-Dataset for PDE10A, Compound 429], 6.37. In turn, `Cn1nccc1NC(=O)c1nc(C2CC2)ccc1Nc1cncnc1` [Roche-Dataset for PDE10A, Compound 1033] gave a negative-log IC50 (pIC50) of 6.98.

Regarding `Cc1ncc(C)n2nc(/C=C/c3ncn(-c4ccccc4)n3)nc12` [Roche-Dataset for PDE10A, Compound 629], the pIC50 was 6.79. Turning to `CN(C)c1nc2cc(NC(=O)c3c(C(=O)N4CCCC4)cnn3C)ccn2n1` [Roche-Dataset for PDE10A, Compound 489], the pIC50 is 8.28. For `Cc1cc(NC(=O)c2ccc3cc(-c4ccccc4)nn3c2)ccn1` [Roche-Dataset for PDE10A, Compound 384] the value was 7.46; for `Cn1ncc(C(=O)N2CCC2)c1C(=O)Nc1ccn2nc(-c3ccccc3OCCF)nc2c1` [Roche-Dataset for PDE10A, Compound 14], 9.46. `COc1ccccc1-c1nc2n(c1Cl)CC[C@@H](NC(=O)c1c(C(=O)N3CCC3)cnn1C)C2` [Roche-Dataset for PDE10A, Compound 362] had a negative-log IC50 (pIC50) of 6.73. For `O=C(Nc1cn(Cc2ccccn2)cn1)c1nc(C2CC2)ccc1Nc1cncnc1` [Roche-Dataset for PDE10A, Compound 1036] the value was 6.96; for `Cn1cc(C(=O)Nc2ccn3cc(-c4ccccc4)nc3n2)c(C(=O)NCc2ccccn2)n1` [Roche-Dataset for PDE10A, Compound 1029], 6.40. As for `Cc1cc(NC(=O)c2c(C(=O)N3CCC3)cnn2C)cc(Br)n1` [Roche-Dataset for PDE10A, Compound 1139], the figure is 5.33. As for `O=C(Nc1ccn2nc(-c3ccccc3)nc2c1)c1ccc(Cl)nn1` [Roche-Dataset for PDE10A, Compound 897], the figure is 5.00; as for `CNC(=O)c1cc2[nH]c(-c3ccccc3)nc2cc1NC(=O)c1cc(C)nn1C(C)(C)C` [Roche-Dataset for PDE10A, Compound 558], 6.03; as for `CC(C)NC(=O)c1nc(C2CC2)cnc1OCc1nc(-c2ccccc2)cn1C` [Roche-Dataset for PDE10A, Compound 252], 5.97. For the molecule `O=C(NCc1ccc(C(F)(F)F)cc1)c1nc(C2CC2)cnc1Nc1cncnc1` [Roche-Dataset for PDE10A, Compound 668], the pIC50 is 7.00. With `CC(C)n1ccc(NC(=O)c2nc(C3CC3)ccc2Nc2cncnc2)n1` [Roche-Dataset for PDE10A, Compound 692], the negative-log IC50 (pIC50) was 7.32.

For the molecule `Cc1nc2ccc(Cl)cc2nc1OCc1nc(-c2ccccc2)cn1C` [Roche-Dataset for PDE10A, Compound 769], the negative logarithm of the IC50 (pIC50) is 8.20.
